Laboratory results: the supplement of paper PMC13380429

Tests used:
[1] = system: A549-ACE2 infected with SARS-CoV-2; test: cell count relative to DMSO; higher = less toxic; conditions: 24 h
[2] = system: Caco-2; test: cell viability relative to DMSO; higher = less toxic; conditions: 72 h
[3] = system: Calu-3; test: as above; conditions: 72 h
[4] = system: HepG2; test: as above; conditions: 72 h
[5] = system: U2OS; test: as above; conditions: 72 h
[6] = system: Vero E6; test: as above; conditions: 72 h
[7] = system: A549-ACE2 infected with SARS-CoV-2; test: SARS-CoV-2 infection rate relative to DMSO; higher = more infection; conditions: 24 h
[8] = system: A549-ACE2; test: drug-induced phospholipidosis relative to tamoxifen; higher = more phospholipidosis
[9] = system: A549-ACE2 infected with SARS-CoV-2; test: morphology score (similarity to uninfected cells); higher = more like uninfected cells; conditions: 24 h
[10] = system: Caco-2; test: relative viability EC50 (midpoint between 100% and the lowest measured viability); higher = less toxic; conditions: 72 h
[11] = system: Calu-3; test: as above; conditions: 72 h
[12] = system: HepG2; test: as above; conditions: 72 h
[13] = system: U2OS; test: as above; conditions: 72 h
[14] = system: Vero E6; test: as above; conditions: 72 h
[15] = system: Caco-2; test: drug sensitivity score (DSS) for viability; higher = more toxic; extreme values may be limits of the assay; conditions: 72 h
[16] = system: Calu-3; test: as above; conditions: 72 h
[17] = system: HepG2; test: as above; conditions: 72 h
[18] = system: U2OS; test: as above; conditions: 72 h
[19] = system: Vero E6; test: as above; conditions: 72 h
[20] = system: A549-ACE2; test: phospholipidosis EC50; higher = less potent phospholipidosis inducer

CC1=C(C(=O)OC2CCCCC2)C(c2ccc([N+](=O)[O-])cc2)C2=C(CC(C)(C)CC2=O)N1 (configuration not stated) [FLI-06]
cell count ([1]; 0.1 µM): 99% | cell count ([1]; 0.3 µM): 104% | cell count ([1]; 1 µM): 99% | cell count ([1]; 3 µM): 101% | cell viability ([2]; 1 nM): 102% | cell viability ([2]; 10 nM): 101% | cell viability ([2]; 100 nM): 100% | cell viability ([2]; 1000 nM): 98% | cell viability ([2]; 10000 nM): 19.1% | cell viability ([3]; 1 nM): 104% | cell viability ([3]; 10 nM): 106% | cell viability ([3]; 100 nM): 92.3% | cell viability ([3]; 1000 nM): 106% | cell viability ([3]; 10000 nM): 21.8% | cell viability ([4]; 1 nM): 98.5% | cell viability ([4]; 10 nM): 102% | cell viability ([4]; 100 nM): 101% | cell viability ([4]; 1000 nM): 108% | cell viability ([4]; 10000 nM): 38.8% | cell viability ([5]; 1 nM): 101% | cell viability ([5]; 10 nM): 100% | cell viability ([5]; 100 nM): 98.7% | cell viability ([5]; 1000 nM): 100% | cell viability ([5]; 10000 nM): 9.6% | cell viability ([6]; 1 nM): 94.2% | cell viability ([6]; 10 nM): 92.2% | cell viability ([6]; 100 nM): 96.6% | cell viability ([6]; 1000 nM): 103% | cell viability ([6]; 10000 nM): 14.2% | SARS-CoV-2 infection rate ([7]; 0.1 µM): 111% | SARS-CoV-2 infection rate ([7]; 0.3 µM): 100% | SARS-CoV-2 infection rate ([7]; 1 µM): 101% | SARS-CoV-2 infection rate ([7]; 3 µM): 51% | drug-induced phospholipidosis ([8]; 0.3 µM, 24 h): -0.85% | drug-induced phospholipidosis ([8]; 0.3 µM, 48 h): 3.76% | drug-induced phospholipidosis ([8]; 0.3 µM, 72 h): 4.47% | drug-induced phospholipidosis ([8]; 0.833333 µM, 24 h): 2.59% | drug-induced phospholipidosis ([8]; 0.833333 µM, 48 h): 2.95% | drug-induced phospholipidosis ([8]; 0.833333 µM, 72 h): 2.39% | drug-induced phospholipidosis ([8]; 3.33333 µM, 24 h): 9.31% | drug-induced phospholipidosis ([8]; 3.33333 µM, 48 h): -2.25% | drug-induced phospholipidosis ([8]; 3.33333 µM, 72 h): -2.58% | drug-induced phospholipidosis ([8]; 6.66667 µM, 24 h): 10.3% | drug-induced phospholipidosis ([8]; 6.66667 µM, 48 h): -3.67% | drug-induced phospholipidosis ([8]; 10 µM, 24 h): 4.47% | drug-induced phospholipidosis ([8]; 30 µM, 24 h): 3.32% | morphology score ([9]; 0.1 µM): -0.06 | morphology score ([9]; 0.3 µM): -0.11 | morphology score ([9]; 1 µM): 0.02 | morphology score ([9]; 3 µM): 0.52 | relative viability EC50 [10]: 2990 nM | relative viability EC50 [11]: 3530 nM | relative viability EC50 [12]: 3.72 µM | relative viability EC50 [13]: 3160 nM | relative viability EC50 [14]: 3360 nM | drug sensitivity score [15]: 4.7 | drug sensitivity score [16]: 3.9 | drug sensitivity score [17]: 2.8 | drug sensitivity score [18]: 5.1 | drug sensitivity score [19]: 4.5

CN1CCC(CNc2ccc3ncc(-c4cccc(OC(F)(F)F)c4)n3n2)CC1 [SGI-1776]
cell count ([1]; 0.1 µM): 105% | cell count ([1]; 0.3 µM): 95% | cell count ([1]; 1 µM): 106% | cell count ([1]; 3 µM): 113% | cell viability ([2]; 1 nM): 102% | cell viability ([2]; 10 nM): 98.7% | cell viability ([2]; 100 nM): 101% | cell viability ([2]; 1000 nM): 88.2% | cell viability ([2]; 10000 nM): 58.6% | cell viability ([3]; 1 nM): 95.2% | cell viability ([3]; 10 nM): 88.7% | cell viability ([3]; 100 nM): 97.4% | cell viability ([3]; 1000 nM): 92.8% | cell viability ([3]; 10000 nM): 46.2% | cell viability ([4]; 1 nM): 101% | cell viability ([4]; 10 nM): 95.1% | cell viability ([4]; 100 nM): 98.7% | cell viability ([4]; 1000 nM): 99.9% | cell viability ([4]; 10000 nM): 37.7% | cell viability ([5]; 1 nM): 102% | cell viability ([5]; 10 nM): 95.4% | cell viability ([5]; 100 nM): 100% | cell viability ([5]; 1000 nM): 92.1% | cell viability ([5]; 10000 nM): 52% | cell viability ([6]; 1 nM): 104% | cell viability ([6]; 10 nM): 104% | cell viability ([6]; 100 nM): 99.5% | cell viability ([6]; 1000 nM): 97% | cell viability ([6]; 10000 nM): 55% | SARS-CoV-2 infection rate ([7]; 0.1 µM): 94% | SARS-CoV-2 infection rate ([7]; 0.3 µM): 106% | SARS-CoV-2 infection rate ([7]; 1 µM): 84% | SARS-CoV-2 infection rate ([7]; 3 µM): 48% | phospholipidosis EC50 ([20]; 24 h): 5.98 µM | phospholipidosis EC50 ([20]; 48 h): 11.8 µM | phospholipidosis EC50 ([20]; 72 h): 7.83 µM | drug-induced phospholipidosis ([8]; 0.3 µM, 24 h): 8.28% | drug-induced phospholipidosis ([8]; 0.3 µM, 48 h): 2.75% | drug-induced phospholipidosis ([8]; 0.3 µM, 72 h): 3.7% | drug-induced phospholipidosis ([8]; 0.833333 µM, 24 h): 2.67% | drug-induced phospholipidosis ([8]; 0.833333 µM, 48 h): 0.46% | drug-induced phospholipidosis ([8]; 0.833333 µM, 72 h): -1.53% | drug-induced phospholipidosis ([8]; 3.33333 µM, 24 h): 25.6% | drug-induced phospholipidosis ([8]; 3.33333 µM, 48 h): 18.4% | drug-induced phospholipidosis ([8]; 3.33333 µM, 72 h): 13.6% | drug-induced phospholipidosis ([8]; 6.66667 µM, 24 h): 59.2% | drug-induced phospholipidosis ([8]; 6.66667 µM, 48 h): 53.2% | drug-induced phospholipidosis ([8]; 6.66667 µM, 72 h): 50.1% | drug-induced phospholipidosis ([8]; 10 µM, 24 h): 81% | drug-induced phospholipidosis ([8]; 10 µM, 48 h): 85.9% | drug-induced phospholipidosis ([8]; 10 µM, 72 h): 79.6% | drug-induced phospholipidosis ([8]; 30 µM, 24 h): 100% | morphology score ([9]; 0.1 µM): 0.31 | morphology score ([9]; 0.3 µM): -0.09 | morphology score ([9]; 1 µM): 0.43 | morphology score ([9]; 3 µM): 0.76 | relative viability EC50 [11]: 2090 nM | relative viability EC50 [12]: 3.15 µM | drug sensitivity score [15]: 3.9 | drug sensitivity score [16]: 4.1 | drug sensitivity score [17]: 3.4 | drug sensitivity score [18]: 3.8 | drug sensitivity score [19]: 2.8

c1cncc(CN2CCC(n3ncc4c(N5CCOCC5)nc(-c5ccc6[nH]ccc6c5)nc43)CC2)c1 [WAY-600]
cell count ([1]; 0.1 µM): 102% | cell count ([1]; 0.3 µM): 101% | cell count ([1]; 1 µM): 108% | cell count ([1]; 3 µM): 107% | cell viability ([2]; 1 nM): 96.4% | cell viability ([2]; 10 nM): 95.9% | cell viability ([2]; 100 nM): 102% | cell viability ([2]; 1000 nM): 70.3% | cell viability ([2]; 10000 nM): 24.7% | cell viability ([3]; 1 nM): 101% | cell viability ([3]; 10 nM): 94.9% | cell viability ([3]; 100 nM): 95% | cell viability ([3]; 1000 nM): 64.8% | cell viability ([3]; 10000 nM): 27.3% | cell viability ([4]; 1 nM): 106% | cell viability ([4]; 10 nM): 112% | cell viability ([4]; 100 nM): 98.5% | cell viability ([4]; 1000 nM): 72.2% | cell viability ([4]; 10000 nM): 2.5% | cell viability ([5]; 1 nM): 102% | cell viability ([5]; 10 nM): 98.1% | cell viability ([5]; 100 nM): 97.8% | cell viability ([5]; 1000 nM): 89.5% | cell viability ([5]; 10000 nM): 23% | cell viability ([6]; 1 nM): 103% | cell viability ([6]; 10 nM): 104% | cell viability ([6]; 100 nM): 99.4% | cell viability ([6]; 1000 nM): 82.2% | cell viability ([6]; 10000 nM): 25.2% | SARS-CoV-2 infection rate ([7]; 0.1 µM): 103% | SARS-CoV-2 infection rate ([7]; 0.3 µM): 81% | SARS-CoV-2 infection rate ([7]; 1 µM): 56% | SARS-CoV-2 infection rate ([7]; 3 µM): 35% | phospholipidosis EC50 ([20]; 24 h): 0.65 µM | drug-induced phospholipidosis ([8]; 0.3 µM, 24 h): 18.3% | drug-induced phospholipidosis ([8]; 0.3 µM, 48 h): 16.7% | drug-induced phospholipidosis ([8]; 0.3 µM, 72 h): 17.1% | drug-induced phospholipidosis ([8]; 0.833333 µM, 24 h): 55% | drug-induced phospholipidosis ([8]; 0.833333 µM, 48 h): 40.1% | drug-induced phospholipidosis ([8]; 0.833333 µM, 72 h): 29.6% | drug-induced phospholipidosis ([8]; 3.33333 µM, 24 h): 79.8% | drug-induced phospholipidosis ([8]; 3.33333 µM, 48 h): 86.2% | drug-induced phospholipidosis ([8]; 6.66667 µM, 24 h): 55% | drug-induced phospholipidosis ([8]; 10 µM, 24 h): 39.9% | drug-induced phospholipidosis ([8]; 30 µM, 24 h): 10.3% | morphology score ([9]; 0.1 µM): 0.01 | morphology score ([9]; 0.3 µM): 0.46 | morphology score ([9]; 1 µM): 0.61 | morphology score ([9]; 3 µM): 0.33 | relative viability EC50 [10]: 1190 nM | relative viability EC50 [11]: 1010 nM | relative viability EC50 [12]: 1.44 µM | relative viability EC50 [13]: 2070 nM | relative viability EC50 [14]: 1590 nM | drug sensitivity score [15]: 8.2 | drug sensitivity score [16]: 8.1 | drug sensitivity score [17]: 9.5 | drug sensitivity score [18]: 6 | drug sensitivity score [19]: 6.9
